For assay [1], the system named is platelet aggregation (platelet-rich plasma). As to the kind of experiment: Antithrombotic activity: inhibition of collagen-induced platelet aggregation in platelet-rich plasma (Born and Cross). The format is cell-based, human (healthy volunteers). Conditions: 50% change in optical density, human platelet-rich plasma, 10 min preincubation. The procedure: 2. Antithrombotic Activity Method The thrombocyte aggregation is measured using the Born and Cross method (J. Physiol. 170:397 (1964)) in platelet-rich plasma taken from healthy volunteers. To inhibit coagulation the blood is mixed with 3.14% sodium citrate in a ratio by volume of 1:10. Collagen-induced aggregation The pattern of the decrease in optical density of the platelet suspension is photometrically measured and recorded after the addition of aggregation-triggering substance. The rate of aggregation is concluded from the angle of inclination of the density curve. The point on the curve where there is maximum light transmittance is used to calculate the optical density. The amount of collagen used is as small as possible but sufficient to produce an irreversible reaction curve. Standard commercial collagen produced by Hormonchemie of Munich is used. Before the addition of the collagen the plasma is incubated for 10 minutes with the substance at […]. From the measurements obtained an EC50 is determined graphically, indicating a 50% change in the optical density in terms of the inhibition of aggregation.

The target of another assay is Human Thrombocytes. The experiment in a line: Fibrinogen binding to human thrombocytes (fibrinogen binding test). The procedure: 1. Fibrinogen Binding to Human Thrombocytes The blood obtained by puncturing an antecubital vein is anticoagulated with trisodium citrate (final concentration: 13 mM) and centrifuged for 10 minutes at 170× g. The supernatant platelet-rich plasma is poured onto a Sepharose 2B column (Pharmacia) and eluted with a solution of 90 mM common salt, 14 mM trisodium citrate, 5 mM glucose and 50 mM tris(hydroxymethyl)aminomethane, adjusted to pH 7.4. The gel-filtered platelets (GFP) appearing before the plasma proteins are used for the binding experiments. 50 μl of a 60 mM calcium chloride solution, 50 μl of a 0.6 mM adenosine diphosphate solution, 100 μl of substance solution or solvent and 50 μl of fibrinogen solution (containing 3 μg of ^125 fibrinogen) are added to 750 μl of GFP and incubated for 20 minutes at ambient temperature. The non-specific binding is determined in the presence of 3 mg/ml of cold fibrinogen. 900 μl of the incubated material are carefully pipetted onto 250 μl of silicon oil (AP 38: AR 20, 1:2 v/v, Wacker Chemie) in Eppendorf tubes and centrifuged for 2 minutes at 10,000× g. The aqueous supernatant and some of the oil are drawn off, the tips of the tubes are cut off together with the platelet pellet and the quantity of bound fibrinogen is determined in a gamma counter. The concentration of substance which brings about a 50% inhibition in fibrinogen binding is determined from a series of concentrations and is given as the IC50 value. | *^125 I fibrogen was replaced by […] |e.

Setting [2] is: 125I fibrinogen, 50% inhibition of fibrinogen binding, gel-filtered human platelets, ADP, 20 min ambient temperature, read-out: Fibrinogen binding test IC50.
The mark [3] stands for this setting: *: 125I fibrinogen replaced by 3H-(3S,5S)-5-[(amidino-biphenylyl)-oxymethyl]-carboxymethyl-pyrrolidinone ligand, read-out: Fibrinogen binding test IC50 (values marked *).

Counter-ions that a name gives are not always drawn. Like-named read-outs stand apart in the source and are kept apart here.

Consider `N=C(N)c1ccc(-c2nc3cc(C(=O)NCCC(=O)O)ccc3n2CCCN)cc1` [1(76), 2-(4-amidino-phenyl)-1-(3-amino-propyl)-5-[(2-carboxy-ethyl)-aminocarbonyl]-benzimidazole-diacetate], for which the EC50 in assay [1] came to 1150 nM.

For `COC(=O)CCCCn1c(=O)c2nc(-c3ccc(C(=N)N)cc3)n(C)c2n(C)c1=O` [3(141), 8-(4-amidino-phenyl)-3,9-dimethyl-1-(4-methoxycarbonyl-butyl)-xanthine hyd rochloride-hydroacetate], a half-maximal effect in assay [1] (EC50) was put at 80 nM. Further, the IC50 on Human Thrombocytes (setting [2]) is 140 nM.

In assay [1], `CNc1cc2c(cc1C(=O)NCCC(=O)OC)nc(-c1ccc(C(=N)N)cc1)n2C` [3(123), 2-(4-amidino-phenyl)-5-[(2-methoxycarbonyl-ethyl)-aminocarbonyl]-1-methyl-6-methylamino-benzimidazole-hydrochloride-hydrogen acetate] had a half-maximal effective concentration (EC50) of 12000 nM. Also, the concentration for half-maximal inhibition (IC50) at Human Thrombocytes (setting [3]) is 25000 nM.

Turning to `COC(=O)CCNC(=O)c1cc2nc(-c3ccc(C(=N)N)cc3)n(C)c2cc1N(C)CC(=O)OC` [3(124), 2-(4-amidino-phenyl)-5-[(2-methoxycarbonyl-ethyl)-aminocarbonyl]-6-(N-methoxycarbonylmethyl-methylamino)-1-methyl-benzimidazole-hydrochloride], in assay [1], the EC50 amounted to 2800 nM. The IC50 on Human Thrombocytes (setting [3]) is 17000 nM.

With `COC(=O)CCNC(=O)c1ccc2c(c1)nc(-c1ccc(C(=N)N)cc1)n2Cc1ccccc1` [3(48), 2-(4-amidino-phenyl)-1-benzyl-5-[(2-methoxycarbonyl-ethyl)-aminocarbonyl]-benzimidazole-hydrochloride], in assay [1], the concentration giving a half-maximal response (EC50) was found to be 6400 nM. The IC50 on Human Thrombocytes (setting [3]) was determined as 7000 nM.

Take `N=C(N)c1ccc(-c2nc3cc(C(=O)NCCC(=O)O)ccc3n2CCN2CCNCC2)cc1` [Example 15, 2-(4-Amidino-phenyl)-5-[(2-carboxy-ethyl)-aminocarbonyl]-1-(2-piperazino-ethyl)-benzimidazole-hydrogen acetate]: the midpoint of the response in assay [1], the EC50, lay at 40 nM. Moreover, at Human Thrombocytes (setting [2]), the half-maximal inhibitory concentration (IC50) turned out to be 28 nM.

`N=C(N)c1ccc(-c2nc3cc(C(=O)NCCC(=O)O)ccc3n2CCCCc2ccccc2)cc1` [17(7), 2-(4-amidino-phenyl)-5-[(2-carboxy-ethyl)-aminocarbonyl]-1-(4-phenyl-butyl)-benzimidazole-dihydrobromide] returned a 50% effective concentration (EC50) in assay [1] of 290 nM. The half-maximal inhibitory concentration (IC50) on Human Thrombocytes (setting [3]) came to 5.4 nM.

Consider `N=C(N)c1ccc(-c2nc3cc(C(=O)NCCC(=O)O)ccc3n2CCCN2CCSCC2)cc1` [1(73), 2-(4-amidino-phenyl)-5-[(2-carboxy-ethyl)-aminocarbonyl]-1-(3-thiomorpholino-propyl)-benzimidazole], for which the half-maximal effective concentration (EC50) in assay [1] is 160 nM. Moreover, at Human Thrombocytes (setting [3]), the IC50 stood at 49 nM.

The compound `COc1ccc(CCn2c(-c3ccc(C(=N)N)cc3)nc3cc(C(=O)NCCC(=O)OC(C)C)ccc32)cc1OC` [Example 13, 2-(4-Amidino-phenyl)-1-[2-(3,4-dimethoxy-phenyl)-ethyl]-5-[(2-isopropyloxycarbonyl-ethyl)-aminocarbonyl]-benzimidazole-dihydrochloride] showed a 50% effective concentration (EC50) in assay [1] of 5700 nM. In addition, the concentration for half-maximal inhibition (IC50) on Human Thrombocytes (setting [3]) is 1700 nM.

As to `COC(=O)CCCn1c(-c2ccc(C(=N)N)cc2)nc2cc(C(=O)NCCC(=O)OC)ccc21` [3(120), 2-(4-amidino-phenyl)-5-[(2-methoxycarbonyl-ethyl)-aminocarbonyl]-1-(3-methoxycarbonyl-propyl)-benzimidazole-hydrochloride], the EC50 in assay [1] was 2000 nM. In addition, the IC50 on Human Thrombocytes (setting [3]) turned out to be 1300 nM.

With `COC(=O)CCNC(=O)c1ccc2c(c1)nc(-c1ccc(C(=N)N)cc1)n2CCCN1CC[S+]([O-])CC1` [Example 5, 2-(4-Amidino-phenyl)-5-[(2-methoxycarbonyl-ethyl)-aminocarbonyl]-1-[3-(S-oxido-thiomorpholino)-propyl]-benzimidazole-hydrochloride], the response in assay [1] was half-maximal at 43000 nM (EC50). Further, the 50% inhibitory concentration (IC50) on Human Thrombocytes (setting [3]) is 15000 nM.

As for `COc1ccc(CCn2c(-c3ccc(CN)cc3)nc3cc(C(=O)NCCC(=O)O)ccc32)cc1OC` [17(5), 2-(4-aminomethyl-phenyl)-5-[(2-carboxy-ethyl)-aminocarbonyl]-1-[2-(3,4-dimethoxy-phenyl)-ethyl]-benzimidazole-dihydrobromide], in assay [1], a half-maximal effect (EC50) was put at 2130 nM. Also, the IC50 at Human Thrombocytes (setting [3]) was 370 nM.

Compound `COC(=O)CCNC(=O)c1ccc2c(c1)nc(-c1ccc(C(=N)N)cc1)n2CCc1cc(Br)c(N)c(Br)c1` [3(125), 2-(4-amidino-phenyl)-1-[2-(4-amino-3f5-dibromo-phenyl)-ethyl]-5-[(2-methoxycarbonyl-ethyl)-aminocarbonyl]-benzimidazole] showed an EC50 in assay [1] of 250 nM. On Human Thrombocytes (setting [2]), the concentration for half-maximal inhibition (IC50) stood at 2000 nM.

In the case of `N=C(N)c1ccc(-c2nc3cc(C(=O)NCCC(=O)O)ccc3n2CCCC(=O)O)cc1` [1(138), 2-(4-amidino-phenyl)-5-[(2-carboxy-ethyl)-aminocarbonyl]-1-(3-carboxy-propyl)-benzimidazole], in assay [1], the 50% effective concentration (EC50) came to 3600 nM. For the same compound, at Human Thrombocytes (setting [3]), the 50% inhibitory concentration (IC50) came to 1500 nM.

`N=C(N)c1ccc(OCc2nc3cc(OCC(=O)O)ccc3[nH]2)cc1` [1(135), 2-[(4-amidino-phenyl)-oxymethyl]-5(6)-carboxymethoxy-benzimidazole] gave a concentration giving a half-maximal response (EC50) in assay [1] of 7600 nM. Moreover, the IC50 on Human Thrombocytes (setting [2]) was 800 nM.

For `COC(=O)CCNC(=O)c1ccc2c(c1)nc(-c1ccc(C(=N)N)cc1)n2CCCCc1ccccc1` [3(122), 2-(4-amidino-phenyl)-5-[(2-methoxycarbonyl-ethyl)-aminocarbonyl]-1-(4-phenyl-butyl)-benzimidazole], in assay [1], the 50% effective concentration (EC50) stood at 8600 nM. The IC50 on Human Thrombocytes (setting [3]) was 4000 nM.

The compound `N=C(N)c1ccc(-c2nc3cc(C(=O)NCCC(=O)O)ccc3n2Cc2cccnc2)cc1` [17(3), 2-(4-amidino-phenyl)-5-[(2-carboxy-ethyl)-aminocarbonyl]-1-(3-pyridylmethyl)-benzimidazole-dihydrobromide] registered an EC50 in assay [1] of 430 nM. Moreover, the IC50 on Human Thrombocytes (setting [3]) was determined as 170 nM.

In assay [1], `COC(=O)CCNC(=O)c1ccc2c(c1)nc(-c1ccc(C(=N)N)cc1)n2CCCN1CCSCC1` [3(59), 2-(4-amidino-phenyl)-5-[(2-methoxycarbonyl-ethyl)-aminocarbonyl]-1-(3-thiomorpholino-propyl)-benzimidazole] showed a concentration for a half-maximal effect (EC50) of 3800 nM. For the same compound, the concentration for half-maximal inhibition (IC50) at Human Thrombocytes (setting [3]) stood at 2000 nM.

In assay [1], `CNc1cc2c(cc1C(=O)NCCC(=O)O)nc(-c1ccc(C(=N)N)cc1)n2C` [1(139), 2-(4-amidino-phenyl)-5-[(2-carboxy-ethyl)-aminocarbonyl]-1-methyl-6-methylamino-benzimidazole] came in with an EC50 of 1500 nM. Also, the half-inhibitory concentration (IC50) at Human Thrombocytes (setting [3]) stood at 410 nM.

In assay [1], `N=C(N)c1ccc(-c2nc3cc(C(=O)NCCC(=O)O)ccc3n2CCc2cc(Br)c(N)c(Br)c2)cc1` [17(8), 2-(4-amidino-phenyl)-1-[2-(4-amino-3,5-dibromo-phenyl)-ethyl]-5-[(2-carboxy-ethyl)-aminocarbonyl]-benzimidazole-dihydrobromide] returned an EC50 of 350 nM. Moreover, the IC50 on Human Thrombocytes (setting [3]) is 47 nM.

With `N=C(N)c1ccc(-c2nc3cc(C(=O)NCCC(=O)O)ccc3n2Cc2ccccc2)cc1` [1(62), 2-(4-amidino-phenyl)-1-benzyl-5-[(2-carboxy-ethyl)-aminocarbonyl]-benzimidazole-hydrochloride], the IC50 on Human Thrombocytes (setting [3]) came to 38 nM.

`COC(=O)COc1ccc2[nH]c(COc3ccc(C(=N)N)cc3)nc2c1` [Example 3, 2-[(4-Amidino-phenyl)-oxymethyl]-5(6)-methoxycarbonyl-methoxy-benzimidazole-hydrochloride] showed an EC50 in assay [1] of 1200 nM.

The values are drawn from patent US5434150A, “Condensed 5-membered heterocyclic compounds, processes for preparing them and pharmaceutical preparations containing these compounds” (Dr. Karl Thomae GmbH, priority 1991, dated 1995).
